According to patent US10647694B2, “Diphenylaminopyrimidine and triazine compound, and pharmaceutical composition and use thereof” (ARROMAX PHARMATECH CO., LTD., priority 2016, dated 2020):

Key:
Ba/F3 cells = test: Tumor cell growth inhibition test (CCK8 detection), Ba/F3; format: cell-based, mouse
Protocol: (§1) Growth Inhibition Test of the Series of Compounds on Various Tumor Cells (CCK8 Detection)
(1) Ba/F3 mouse IL-3 dependent pro-B lymphocyte cell line, RPMI 1640+10% FBS+10 ng/ml Interleukin-3+1% Sodium Pyruvate;
(§2) (1) Cell culture • a) Cells in logarithmic growth phase were collected, counted, and re-suspended in a complete medium. • b) The cell concentration was adjusted to an appropriate concentration, and inoculated into a 96-well plate in an amount of 100 μl of cell suspension per well. • c) The cells were incubated for 24 hrs in an incubator at 37° C. with 100% relative humidity and 5% CO2.
(§3) (2) Test of relative inhibition rate • 1) Cells in logarithmic growth phase were collected, counted, and re-suspended in a complete medium. The cell concentration was adjusted to an appropriate concentration (determined according to the optimal test result of cell density), and inoculated into a 96-well plate in an amount of 100 μl of cell suspension per well. The cells were incubated for 24 hrs in an incubator at 37° C. with 100% relative humidity and 5% CO2. • 2) The compound to be tested was diluted with the medium to the corresponding action concentration, and […] were added in an amount of 25 µl/well.
(§4) The IC50 curve was fitted using the software Graphpad Prism 5 and using the calculation formula log(inhibitor) vs response and the IC50 value was calculated.

Karpas 299 cells = test: Tumor cell growth inhibition test (CCK8 detection), Karpas 299; format: cell-based, human
Protocol: as §1
(2) Karpas 299 human T lymphoma cell line, RPMI 1640+10% FBS+1% Sodium Pyruvate;
as §2, §3, §4

NCI-H2228 cells = test: Tumor cell growth inhibition test (CCK8 detection), NCI-H2228; format: cell-based, human
Protocol: as §1
(3) NCI-H2228 human non-small cell lung cancer cell line, RPMI 1640+10% FBS+1% Sodium Pyruvate;
as §2, §3, §4

NCI-H3122 cells = test: Tumor cell growth inhibition test (CCK8 detection), NCI-H3122; format: cell-based, human
Protocol: as §1
(4) NCI-H3122 human lung cancer cell line, RPMI 1640+10% FBS+1% Sodium Pyruvate;
as §2, §3, §4

[1] = tested on: NCI-H2228 nude mice xenografts; test: In-vivo pharmacodynamic evaluation, NCI-H2228 subcutaneous xenograft; settings: 10 mg/kg qd intragastric, 14 days, day 21
Protocol: In-Vivo Pharmacodynamic Evaluation
SCID Beige mice, female, 5-6 weeks old, weighed 18+2 g, purchased from Beijing HFK Bioscience Co., Ltd., bred in an SPF level environment.
NCI-H2228 cells were cultured in PRMI-1640 containing 10% fetal bovine serum (FBS) and 1% sodium pyruvate. The cells were cultured in an incubator at 37° C. with 5% CO2.
Establishment of subcutaneous tumor transplantation model in nude mice by cell inoculation: Tumor cells in logarithmic growth phase were collected, counted and re-suspended in PRMI-1640 basal medium. Matrigel was added at a ratio of 1:1, and the concentration of the cell suspension was adjusted to 6×10^7/ml. Tumor cells were subcutaneously inoculated to the right back of nude mice in an amount of 6×10^6/0.1 mL/mouse using a 1 mL syringe (with a […]).
When the tumor volume reached about 200 mm^3, the animals were randomly grouped according to randomized block method, so that the difference in tumor volume of each group was within 10% of the mean. There were 5 groups in total, each having 8 animals. The day of grouping was recorded as Day 0, and the animals were administered immediately after grouping. Compound I-3 of the present invention and Ceritinib were orally administered once a day for consecutive 14 days, and then observed for 7 days. The weight and tumor size of the animals were measured twice a week during the experiment. The clinical symptoms were observed and recorded daily. After the animals were weighed for the last time on Day 21, they were sacrificed by euthanization with CO2. The tumors were taken, weighed and photographed, and the average tumor size was calculated, to investigate the growth inhibitory effect of the test substance Compound I-3 on human lung cancer NCI-H2228 nude mice xenografts under the experimental conditions.
When the tumor in the tumor-bearing mice grew to a measurable size, the mice were randomly divided into 5 groups according to the principle of equal mean tumor volume using SPSS 17.0 software. Compound I-3 was administered by intragastric administration at a dosage of 30, 10, and 3 mg/kg per day. The positive control ceritinib was administered by intragastric administration at a dose of 10 mg/kg per day in a volume of 0.1 ml/10 g. These agents were administered once a day for consecutive 14 days. The animals in the negative control group were given an equal amount of solvent (1% DMSO in physiological saline). During the administration and recovery periods, the body weight and tumor size of the mice were measured 2-3 times per week. The tumor volume and relative tumor volume were calculated based on the measured data. The tumor volume (TV) was calculated by a formula below: TV=1/2×a×b^2, where a and b represent the major and minor diameters of the tumor, respectively. According to the measurement results, the relative tumor volume (RTV) was calculated, by a formula below: RTV=Vt/V0, where V0 is the tumor volume at the start of the experiment, and Vt is the tumor volume measured each time.

ALK enzyme = ALK enzyme (Homo sapiens, UniProt Q9UM73); test: In-vitro ALK kinase inhibitory activity (HTRF kinEASE TK kit); format: biochemical; settings: inhibitory activity for ALK enzyme, read-out: IC50 range
ALK enzyme, sequence (Q9UM73 19-1620 limits assumed): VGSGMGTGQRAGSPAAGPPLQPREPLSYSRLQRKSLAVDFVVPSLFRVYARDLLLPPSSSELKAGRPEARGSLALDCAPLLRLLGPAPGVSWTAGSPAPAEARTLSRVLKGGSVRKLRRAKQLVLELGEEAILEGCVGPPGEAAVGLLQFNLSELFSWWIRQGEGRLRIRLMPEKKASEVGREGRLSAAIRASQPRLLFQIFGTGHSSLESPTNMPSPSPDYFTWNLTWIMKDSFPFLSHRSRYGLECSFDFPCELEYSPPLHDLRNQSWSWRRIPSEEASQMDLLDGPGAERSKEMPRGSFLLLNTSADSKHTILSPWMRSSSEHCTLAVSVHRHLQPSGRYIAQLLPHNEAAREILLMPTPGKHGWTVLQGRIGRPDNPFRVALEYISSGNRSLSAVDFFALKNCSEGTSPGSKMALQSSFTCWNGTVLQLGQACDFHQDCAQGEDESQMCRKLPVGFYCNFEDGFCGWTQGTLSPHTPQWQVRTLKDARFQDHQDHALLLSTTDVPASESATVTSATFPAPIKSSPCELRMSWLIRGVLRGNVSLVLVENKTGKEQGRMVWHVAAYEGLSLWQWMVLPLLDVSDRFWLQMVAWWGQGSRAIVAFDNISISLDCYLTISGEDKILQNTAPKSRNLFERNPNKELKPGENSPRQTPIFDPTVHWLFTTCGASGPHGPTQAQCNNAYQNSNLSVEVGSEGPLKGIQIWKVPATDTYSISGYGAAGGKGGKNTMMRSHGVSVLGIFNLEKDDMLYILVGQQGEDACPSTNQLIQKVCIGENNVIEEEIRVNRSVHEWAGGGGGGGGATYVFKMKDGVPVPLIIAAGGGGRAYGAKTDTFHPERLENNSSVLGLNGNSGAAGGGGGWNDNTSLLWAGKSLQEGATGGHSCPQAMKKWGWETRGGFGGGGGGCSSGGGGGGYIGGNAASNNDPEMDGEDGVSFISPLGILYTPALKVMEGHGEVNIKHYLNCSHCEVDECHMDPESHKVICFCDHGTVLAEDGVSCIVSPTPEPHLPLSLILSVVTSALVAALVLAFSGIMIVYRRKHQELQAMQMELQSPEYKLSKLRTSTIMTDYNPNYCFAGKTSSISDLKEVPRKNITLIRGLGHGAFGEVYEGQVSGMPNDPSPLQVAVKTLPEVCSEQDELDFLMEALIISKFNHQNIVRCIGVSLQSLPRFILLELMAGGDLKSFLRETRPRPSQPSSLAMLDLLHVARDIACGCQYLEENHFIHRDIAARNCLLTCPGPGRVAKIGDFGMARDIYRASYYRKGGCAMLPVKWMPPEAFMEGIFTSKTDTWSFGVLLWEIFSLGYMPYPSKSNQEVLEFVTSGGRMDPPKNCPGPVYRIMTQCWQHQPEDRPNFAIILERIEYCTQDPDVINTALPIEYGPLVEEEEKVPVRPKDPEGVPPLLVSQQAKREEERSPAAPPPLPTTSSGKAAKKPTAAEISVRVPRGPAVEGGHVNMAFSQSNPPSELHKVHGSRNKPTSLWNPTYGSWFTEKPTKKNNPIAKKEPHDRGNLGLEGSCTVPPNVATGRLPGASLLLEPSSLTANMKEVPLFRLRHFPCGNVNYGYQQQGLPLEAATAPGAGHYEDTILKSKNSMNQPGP
Protocol: Anaplastic Lymphoma Kinase (ALK) Inhibitory Activity The in-vitro kinase assay was performed using the HTRF kinEASE TK kit available from Cisbio. The operation steps are indicated in the instructions of the kit. This method was used to detect the inhibitory effect of the compound to be tested on the activity of ALK enzymes in vitro, including wild-type ALK (Cat.PV3867, Invitrogen), ALK L1196M (Cat. PV6168, Life technologies), and ALK F1174L (Cat. PV6160, Life technologies). The specific operation steps were as follows. […] In addition to the control wells, 4 μL of the diluted compound solution to be tested was added to the reaction wells, and 4 μL of the 2.5% DMSO solution corresponding to the ALK enzyme previously formulated was added to the control wells. (2) 2 μL of a TK-biotin substrate solution previously formulated in a substrate concentration corresponding to the ALK enzyme was added to all reaction wells. (3) 2 μL of a previously prepared enzyme solution of corresponding concentration was added to all the reaction wells except the negative wells, and 2 μL of the 1× kinase buffer corresponding to the enzyme was added to the negative wells to make up the volume. The plate was sealed with a membrane, and incubated for 10 min at room temperature after mixing uniformly, such that the compounds were bond to the enzyme fully. (4) 2 μL of an ATP solution in a concentration corresponding to the ALK enzyme was added to all the reaction wells to initiate the kinase reaction, where the enzyme reaction time by ALK was 60 minutes. (5) An ALK test solution was prepared 5 minutes before the end of the kinase reaction. Streptavidin-XL665 and TK antibody europium cryptate (1:100) solutions for assay having a concentration corresponding to the enzyme were prepared using the detection buffer in the kit. (6) After the completion of the kinase reaction, 5 μl of diluted Streptavidin-XL665 was added to all the reaction wells respectively, and mixed uniformly, and then the diluted TK antibody europium cryptate solution for assay was added immediately. (7) The plate was sealed, mixed uniformly and allowed to react at room temperature for 1 h. The fluorescence signal (excitation at 320 nm, and emission at 665 nm and 615 nm) was detected using the ENVISION instrument (Perkinelmer). The inhibition rate for each well was calculated from the values of the fully active wells and the background signal wells. The values of replicated wells were averaged, and the half-maximal inhibitory activity (IC50) of each compound to be tested was fitted with a professional drawing analysis software PRISM 5.0.

| IC50 (Ba/F3 cells; Mus musculus, BaF3, 72 hrs) | IC50 (Karpas 299 cells; Homo sapiens, KARPAS-299, 72 hrs) | IC50 (NCI-H2228 cells; Homo sapiens, NCI-H2228, 72 hrs) | IC50 (NCI-H3122 cells; Homo sapiens, NCI-H3122, 72 hrs) | IC50 (ALK enzyme) | IC50 (Ba/F3 cells; 72 hrs) | IC50 (Karpas 299 cells; 72 hrs) | IC50 (NCI-H2228 cells; 72 hrs) | IC50 (NCI-H3122 cells; 72 hrs) | Compound | IR (%) [1] | RTV d21 [1] | T/C (%) [1] |
| --- | --- | --- | --- | --- | --- | --- | --- | --- | --- | --- | --- | --- |
| 2390 nM | 35.6 nM | 97.1 nM | 27.2 nM |  |  |  |  |  | Cc1cc(Nc2ncc(Cl)c(Nc3ccccc3S(=O)(=O)C(C)C)n2)c(OC(C)C)cc1C1CCNCC1 [Ceritinib, reference compound] | 26.07% | 2.68 ± 0.28 | 71.47% |
|  |  |  |  | 1 to 10 nM | 1990 nM | 5.23 nM | 45.5 nM | 6.09 nM | 5-chloro-N2-(2-D6-ethoxy-5-methyl-4-(piperidin-4-yl)phenyl)-N4-(2-(isopr opylsulfonyl)phenyl))pyrimidin-2,4-diamine [Compound I-14] |  |  |  |
